Patent publication US11337950B2, “Biologically active cannabidiol analogs” (University of Mississippi, priority 2016, dated 2022)
“And” between values parts separate entries of the source, which are not always exact repeats. Identical values can stand only once. Like-named read-outs stand apart in the source and are kept apart here.

Tests used:
[1] = Organ distribution of CBD-Mono-VHS after oral administration (Example 19); assay type: in vivo, rats; details: rat, oral 4 mg/animal
[2] = as above; assay type: in vivo, rats; details: rat, oral 4 mg/animal; remark: listed apart in the source
Description: To determine whether CBD-Mono-VHS reaches the organs and especially the brain, two cannulated rats were administered same dose as those in Example 18. One rat was sacrificed at 2 hr. after dosing and the other at 4 hr. after dosing and the organs were harvested (brain, liver, and spleen) as well as blood for analysis.

[3] = In vivo eye tissue levels 90 min after topical application in Tocrisolve emulsion (Examples 12-14); set-up: species or system New Zealand albino rabbits
Description: Conscious male New Zealand albino rabbits were used. The formulations were applied topically into the rabbits eyes (50 μL containing the equivalent of 250 μg CBD) in Tocrisolve® emulsion formulations as described in Example 11. The animals were sacrificed 90 min. after drug application and the eye tissues harvested for analysis.
The same procedure was followed as shown under Example 12. Additional CBD analogs were tested in this example. In this example the tissue levels of both free CBD and intact analog were determined.
Formulations: Fifty microlitres of 0.5% w/v CBD in Tocrisolve emulsion (Dose: 0.25 mg)
Animal model: Conscious male new Zealand albino rabbits, Duration of the study: 90 min.
Aqueous humor, Vitreous humor, Retina-Choroid and Iris-Ciliary bodies analysed for parent compound as well as CBD.
Formulations: Fifty microlitres of 0.5% w/v Tocrisolve emulsion formulations (Dose: 0.25 mg)
Animal model: Conscious male new Zealand albino rabbits, Duration of the study: 90 min

[4] = system: morphine place preference; experiment: Morphine conditioned place preference, model of addiction (Example 25); details: mice, morphine groups, IP; CBD 2.5-20.0 mg/kg, CBD-val-HS 10.0 mg/kg
[5] = assay type: physicochemical; details: for Concentration of CBD-Mono-Val-Mono-HS: 37° C.
Description: The stability CBD and CBD analogs (CBD-Mono-VHS and CBD-Di-VHS) was evaluated under acidic and alkaline conditions to simulate exposure to gastric and intestinal fluids. The procedure is outlined as follows: • 1. Stock solution of 5 mg/mL CBD, CBD-Mono-Val-Mono HS, CBD-Di-Val-Di HS was prepared. • 2. Simulated Gastric Fluid (pH 1.2)+1% (SDS) was prepared and kept in 37° C. water bath. • 3. Physiological buffer (pH 7.4)+1% SDS was prepared and kept in 37° C. water bath. • 4. 100 μL of CBD, CBD-Mono-Val-Mono HS or CBD-Di-Val-Di-HS stock in acetonitrile (equivalent to 500 μg) was spiked into separate vials containing 5 ml of either pH 1.2 and 7.4. • 5. At each time point, 100 μL of the solution was withdrawn. • 6. 900 μL acetonitrile was added to each sample. • 7. All samples centrifuged at 4° C. and 13,000 rpm. • 8. 100 μL of the supernatant was withdrawn; to this 100 μL of supernatant, 900 μL of acetonitrile was added and placed in LC vials for analysis. Tables 9, 10 and 11, and FIGS. 7a, 7b, 18, and 19 show the results.

[6] = Oral bioavailability of CBD-Mono-VHS in sesame seed oil (Example 18); assay type: in vivo; details: rats; for Plasma Concentration of CBD-Mono-VHS, Average / Plasma Concentration of CBD-Mono-VHS: oral 4 mg/animal in sesame seed oil; for Plasma Concentration of CBD-Mono-VHS: individual animals
Description: CBD-Mono-VHS was formulated in a sesame seed oil (Welch, Holme and Clark Co. lot #39375) formulation composed of 40 mg/mL solution of the drug substance/mi. Animals (cannulated rats, n=4) were dosed 100 μl of the oil solution by oral gavage. Blood samples were collected at 0, 0.25, 0.5, 1, 2, 4, 6, 8, and 24 hr. after dosing. The blood samples were centrifuged and the plasma was analyzed for CBD-Mono-VHS. Table 7 and FIG. 5 show the results, with very high blood levels which remain significant (>10 ng/mL) at 24 hr. after dosing.

[7] = Bioavailability of CBD-Mono-VHS from a hydrophilic suppository, PEG 1000 (Example 17); assay type: in vivo; set-up: unit not given here; details: rats, rectal 7.5 mg, Hydrophilic (PEG 1000) Suppository; for Plasma Concentration of CBD-Mono-VHS: individual animals
Description: CBD-Mono-Val-Mono-HS was formulated in PEG 1000 suppository base (a hydrophilic suppository base) at 75 mg/mL of melted base. The study was carried out in a cannulated rat model. Three animals were administered 100 μl. each of the semisolid formulation for a rectal dose of 7.5 mg CBD-Mono-VHS. […] The blood was centrifuged and the plasma was used for LC-MS/MS analysis.

[8] = Table 3, Set 1, rabbit eye, 90 min post topical 50 μL Tocrisolve emulsion, dose 0.25 mg CBD
[9] = Table 4, Set 2, rabbit, 90 min post topical 50 μL Tocrisolve emulsion, dose 250 μg
[10] = rabbit eye, 90 min post topical, 0.25 mg CBD

C=C(C)C1CCC(C)=CC1c1c(O)cc(CCCCC)cc1OC(=O)[C@@H](NC(=O)CCC(=O)O)C(C)C (stereo partly shown) [CBD-Mono-VHS, CBD-Mono-Valinate-Mono-Hemisuccinate]
Organ level of CBD-Mono-VHS, KIDNEY ([1]; 2 HR): 353 ng/organ | Organ level of CBD-Mono-VHS, KIDNEY ([1]; 4 HR): 115 ng/organ | Organ level of CBD-Mono-VHS, BRAIN ([2]; 2 HR): 556 ng/organ | Organ level of CBD-Mono-VHS, LIVER ([2]; 2 HR): 66484 ng/organ | Organ level of CBD-Mono-VHS, SPLEEN ([2]; 2 HR): 1438 ng/organ | Plasma level of CBD-Mono-VHS ([2]; 2 HR): 285 ng/mL | Organ level of CBD-Mono-VHS, BRAIN ([2]; 4 HR): 205 ng/organ | Organ level of CBD-Mono-VHS, LIVER ([2]; 4 HR): 8301 ng/organ | Organ level of CBD-Mono-VHS, SPLEEN ([2]; 4 HR): 392 ng/organ | Plasma level of CBD-Mono-VHS ([2]; 4 HR): 53 ng/mL | Analog Conc., AQ Humor [3, 8]: 90.3 ± 13.6 ng/g of tissue | Analog Conc., Iris Ciliary Bodies [3, 8]: 1034 ± 87.4 ng/g of tissue | Analog Conc., Retina Choroid [3, 8]: 689 ± 127 ng/g of tissue | CBD Conc., Iris Ciliary Bodies [3, 8]: 353 ± 43^ ng/g of tissue | CBD Conc., Retina Choroid [3, 8]: 194 ± 31.2 ng/g of tissue | Analog Concentration, Aqueous Humor [3, 9]: 98.7 ± 19.8 ng/g of tissue | Analog Concentration, Iris Ciliary Bodies [3, 9]: 422 ± 197 ng/g of tissue | Analog Concentration, Retina Choroid [3, 9]: 519 ± 476 ng/g of tissue | CBD concentration, Aqueous Humor [3, 9]: 61.3 ± 5.9 ng/g of tissue | CBD concentration, Iris Ciliary Bodies [3, 9]: 585 ± 103 ng/g of tissue | CBD concentration, Retina Choroid [3, 9]: 503 ± 373 ng/g of tissue | Ocular tissue levels of free CBD, in words (Example 13) [3, 10]: high levels of Free CBD in the retina choroid and iris-ciliary bodies | Ocular tissue levels of the applied substance, in words (Example 13) [3, 10]: detected in high concentration in the aqueous humor, retina choroid and iris-ciliary bodies | Penetration into the ocular tissues, in words (Example 14) ([3]; rabbit eye, topical Tocrisolve emulsion): superior analog for penetration into the different tissues of the eye | Effect on morphine place preference, in words [4]: significantly (P=0.005) blocked the addictive effects of morphine | Concentration of CBD-Mono-Val-Mono-HS ([5]; Acid (pH 1.2), Time Point 0): 941 ng/mL | Concentration of CBD-Mono-Val-Mono-HS ([5]; Acid (pH 1.2), Time Point 15): 1380 ng/mL | Concentration of CBD-Mono-Val-Mono-HS ([5]; Acid (pH 1.2), Time Point 30): 1472 ng/mL | Concentration of CBD-Mono-Val-Mono-HS ([5]; Acid (pH 1.2), Time Point 60): 1579 ng/mL | Concentration of CBD-Mono-Val-Mono-HS ([5]; Acid (pH 1.2), Time Point 90): 1478 ng/mL | Concentration of CBD-Mono-Val-Mono-HS ([5]; Acid (pH 1.2), Time Point 120): 1519 ng/mL | Concentration of CBD-Mono-Val-Mono-HS ([5]; Base (pH 7.4), Time Point 0): 886 ng/mL | Concentration of CBD-Mono-Val-Mono-HS ([5]; Base (pH 7.4), Time Point 15): 1439 ng/mL | Concentration of CBD-Mono-Val-Mono-HS ([5]; Base (pH 7.4), Time Point 30): 1197 ng/mL | Concentration of CBD-Mono-Val-Mono-HS ([5]; Base (pH 7.4), Time Point 60): 1791 ng/mL | Concentration of CBD-Mono-Val-Mono-HS ([5]; Base (pH 7.4), Time Point 90): 1615 ng/mL | Concentration of CBD-Mono-Val-Mono-HS ([5]; Base (pH 7.4), Time Point 120): 1731 ng/mL | Stability under acidic (gastric juice) conditions, in words ([5]; pH 1.2, 37° C.): stable | Stability under physiologic / intestinal juice conditions, in words ([5]; pH 7.4, 37° C.): stable | Plasma Concentration of CBD-Mono-VHS, Average ([6]; 0 hr): 0.0 ng/mL | Plasma Concentration of CBD-Mono-VHS ([6]; 0 hr): 0.0 ng/mL | Plasma Concentration of CBD-Mono-VHS, Average ([6]; 0.25 hr): 1029.0 ng/mL | Plasma Concentration of CBD-Mono-VHS ([6]; 0.25 hr): 1255.5 ng/mL and 1512.3 ng/mL and 370.2 ng/mL and 978.0 ng/mL | Plasma Concentration of CBD-Mono-VHS, Average ([6]; 0.5 hr): 1626.3 ng/mL | Plasma Concentration of CBD-Mono-VHS ([6]; 0.5 hr): 1174.8 ng/mL and 2655.0 ng/mL and 1437.1 ng/mL and 1238.2 ng/mL | Plasma Concentration of CBD-Mono-VHS, Average ([6]; 1 hr): 2127.5 ng/mL | Plasma Concentration of CBD-Mono-VHS ([6]; 1 hr): 1400.6 ng/mL and 3120.9 ng/mL and 2496.6 ng/mL and 1492.0 ng/mL | Plasma Concentration of CBD-Mono-VHS, Average ([6]; 2 hr): 593.5 ng/mL | Plasma Concentration of CBD-Mono-VHS ([6]; 2 hr): 392.2 ng/mL and 1317.3 ng/mL and 399.5 ng/mL and 264.8 ng/mL | Plasma Concentration of CBD-Mono-VHS, Average ([6]; 4 hr): 234.8 ng/mL | Plasma Concentration of CBD-Mono-VHS ([6]; 4 hr): 115.1 ng/mL and 423.3 ng/mL and 116.1 ng/mL and 284.8 ng/mL | Plasma Concentration of CBD-Mono-VHS, Average ([6]; 6 hr): 212.0 ng/mL | Plasma Concentration of CBD-Mono-VHS ([6]; 6 hr): 71.4 ng/mL and 181.0 ng/mL and 397.8 ng/mL and 197.8 ng/mL | Plasma Concentration of CBD-Mono-VHS, Average ([6]; 8 hr): 152.2 ng/mL | Plasma Concentration of CBD-Mono-VHS ([6]; 8 hr): 44.6 ng/mL and 89.8 ng/mL and 210.0 ng/mL and 264.4 ng/mL | Plasma Concentration of CBD-Mono-VHS, Average ([6]; 24 hr): 27.2 ng/mL | Plasma Concentration of CBD-Mono-VHS ([6]; 24 hr): 6.5 ng/mL and 37.8 ng/mL and 47.1 ng/mL and 17.5 ng/mL | blood levels which remain significant at 24 hr. after dosing ([6]; oral 4 mg/animal, 24 hr): > 10 ng/mL | Plasma Concentration of CBD-Mono-VHS, Average ([7]; 0 hr): 0.0 | Plasma Concentration of CBD-Mono-VHS ([7]; 0 hr): 0.0 | Plasma Concentration of CBD-Mono-VHS, Average ([7]; 0.25 hr): 13.2 | Plasma Concentration of CBD-Mono-VHS ([7]; 0.25 hr): 14.7 and 10.1 and 14.8 | Plasma Concentration of CBD-Mono-VHS, Average ([7]; 0.5 hr): 38.5 | Plasma Concentration of CBD-Mono-VHS ([7]; 0.5 hr): 44.2 and 38.4 and 32.9 | Plasma Concentration of CBD-Mono-VHS, Average ([7]; 1 hr): 89.4 | Plasma Concentration of CBD-Mono-VHS ([7]; 1 hr): 106.0 and 54.3 and 108.0 | Plasma Concentration of CBD-Mono-VHS, Average ([7]; 2 hr): 114.7 | Plasma Concentration of CBD-Mono-VHS ([7]; 2 hr): 108.0 and 123.0 and 113.0 | Plasma Concentration of CBD-Mono-VHS, Average ([7]; 4 hr): 57.2 | Plasma Concentration of CBD-Mono-VHS ([7]; 4 hr): 57.5 and 60.5 and 53.5 | Plasma Concentration of CBD-Mono-VHS, Average ([7]; 6 hr): 28.7 | Plasma Concentration of CBD-Mono-VHS ([7]; 6 hr): 18.6 and 37.4 and 30.1 | Plasma Concentration of CBD-Mono-VHS, Average ([7]; 8 hr): 24.0 | Plasma Concentration of CBD-Mono-VHS ([7]; 8 hr): 44.8 and 21.6 and 27.3 | Plasma Concentration of CBD-Mono-VHS, Average ([7]; 24 hr): 0.9 | Plasma Concentration of CBD-Mono-VHS ([7]; 24 hr): 0.0 and 2.5 and 2.6
